These results are taken from paper PMC6390652 (Toxicological Sciences, 2018).

Data set [1] has as its system human GI microtissues (EpiIntestinal-FT, ileal). The data set is described as follows: Human GI microtissue barrier function assay. The class given is cell-based. The conditions noted are these: for TEER (IC15): human microtissue, blinded, unit not given; for IC15: Homo sapiens.
For data set [2], the system named is human GI microtissue. As to the kind of experiment: GI microtissue TEER response kinetics. The data set is classed as cell-based.
The test system of data set [3] is human GI microtissue. The data set is described as follows: MTT viability assay. The conditions noted are these: Caco-2, read-out: MTT IC50. The data set is classed as cell-based. Background: Formazan colour is commonly taken as a measure of viable cells.
Data set [4] concerns Caco-2 cells. The conditions noted are these: for Caco-2 TEER IC15: Caco-2 transwell, top conc. 100 μM, unit inferred; for Caco-2 TEER IC15/Cmax: human.
The mark [5] stands for this setting: 96 h, read-out: Microtissue Exp 1 TEER IC15.
Where [6] appears, read: read-out: Microtissue Exp 2 TEER IC15.

Read-outs that look alike come from different tables or passages of the source.

In the case of `CSCC[C@H](NC(=O)c1cc(NC[C@@H]2C[C@H](SC(=O)c3cccnc3)CN2)ccc1CCc1ccc(F)cc1)C(=O)OC(C)C` [AZD3409], the “TEER (IC15)” value in data set [1] is reported as 3.0E-06. Besides, in data set [1] (scored with TEER IC15/Cmax ratio < 80), the “TEER Diarrhea-Genic Prediction” value is “Active”.
For the compound `CNC(=O)CN1CCC(Oc2cc3c(Nc4cccc(Cl)c4F)ncnc3cc2OC)CC1` [AZD8931], in data set [1], the “TEER Diarrhea-Genic Prediction” value was “Active” and the “TEER (IC15)” value is reported as 3.0E-9. For the same compound, the “TEER recovery after washout” value in data set [2] (100 μM for 3 days, then washout (first cycle)) is “quickly recovered TEER after washout”. For the same compound, the “Effect on TEER during 3-day treatment period” value in data set [2] (100 μM, 3 days continuous, TEER measured daily) is “pronounced decrease in TEER”. Moreover, the “TEER recovery after second treatment cycle” value in data set [2] (100 μM, second treatment cycle) is reported as “slower”.
The term IC50 denotes the point on the concentration scale where inhibition reaches its midpoint. With `CN(C)C/C=C/C(=O)Nc1cc2c(Nc3ccc(F)c(Cl)c3)ncnc2cc1O[C@H]1CCOC1` [Afatinib], the IC15 is 6 µM in data set [1] (setting [5]) and 8.5 µM in data set [1] (setting [6]). Besides, in data set [3], the half-inhibitory concentration (IC50) came out at 30 µM. Also, the Caco-2 TEER IC15 in data set [4] is 9 µM.
Turning to `COc1cc2nc(N(C)CCCNC(=O)C3CCCO3)nc(N)c2cc1OC` (stereo not drawn) [Alfuzosin], the IC15 in data set [1] (setting [5]) and in data set [1] (setting [6]) was greater than 100 µM in each case. Further, the IC50 in data set [3] is greater than 100 µM. The “Caco-2 TEER IC15/Cmax” value in data set [4] was determined as 3132.
Take `CCCCc1oc2ccccc2c1C(=O)c1cc(I)c(OCCN(CC)CC)c(I)c1` [Amiodarone]: in data set [1] (setting [5]), the IC15 came out at 40 µM.
`CCOC(=O)C1=C(COCCN)NC(C)=C(C(=O)OC)C1c1ccccc1Cl` (stereo not drawn) [Amlodipine]: the IC15 in data set [1] (setting [5]) came out at 15 µM; in data set [1] (setting [6]), 10 µM. The half-maximal inhibitory concentration (IC50) in data set [3] stood at 45 µM. In addition, the Caco-2 TEER IC15 in data set [4] came to 30 µM.
With `CNC(=O)c1ccccc1Sc1ccc2c(/C=C/c3ccccn3)n[nH]c2c1` [Axitinib], the IC15 in data set [1] (setting [5]) is 1 µM; in data set [1] (setting [6]), greater than 100 µM.
On to `CC(C)C[C@H](NC(=O)[C@H](Cc1ccccc1)NC(=O)c1cnccn1)B(O)O` [Bortezomib], for which the IC15 in data set [1] (setting [5]) and in data set [1] (setting [6]) was 1 µM each time. Further, in data set [3], the half-maximal inhibitory concentration (IC50) was greater than 100 µM. For the same compound, the Caco-2 TEER IC15 in data set [4] was 1 µM.
Consider `CCCCCOC(=O)Nc1nc(=O)n([C@@H]2O[C@H](C)[C@@H](O)[C@H]2O)cc1F` [Capecitabine], for which the IC15 in data set [1] (setting [5]) and in data set [1] (setting [6]) was 1 µM throughout. In data set [3], the IC50 was greater than 100 µM. In data set [4], the Caco-2 TEER IC15 is greater than 100 µM.
On to `COc1cc2c(c(OC)c1OC)-c1ccc(OC)c(=O)cc1[C@@H](NC(C)=O)CC2` [Colchicine], for which the IC15 is greater than 100 µM in data set [1] (setting [5]) and 1 µM in data set [1] (setting [6]).
In the case of `C[C@@H](Oc1cc(-c2cnn(C3CCNCC3)c2)cnc1N)c1c(Cl)ccc(F)c1Cl` [Crizotinib], the IC15 in data set [1] (setting [5]) and in data set [1] (setting [6]) was 9.5 µM throughout. For the same compound, the IC50 in data set [3] came to 22 µM. In data set [4], this compound displayed a Caco-2 TEER IC15 of 8 µM.
With `C[C@@H]1C[C@H]2[C@@H]3CCC4=CC(=O)C=C[C@]4(C)[C@@]3(F)[C@@H](O)C[C@]2(C)[C@@]1(O)C(=O)CO` [Dexamethasone], the IC15 in data set [1] (setting [5]) and in data set [1] (setting [6]) was greater than 100 µM throughout. Moreover, the IC50 in data set [3] was greater than 100 µM. This compound came in with a Caco-2 TEER IC15 in data set [4] greater than 100 µM.
For `Cc1cccc([C@H](C)c2cnc[nH]2)c1C` [Dexmedetomidine], the IC15 in data set [1] (setting [5]) and in data set [1] (setting [6]) was 40 µM in each case. Besides, the IC50 in data set [3] was greater than 100 µM. For the same compound, the “Caco-2 TEER IC15/Cmax” value in data set [4] worked out at 21138.
On to `CC(=O)Oc1cccc2c1C(=O)c1c(OC(C)=O)cc(C(=O)O)cc1C2=O` [Diacerein], for which the IC15 in data set [1] (setting [5]) and in data set [1] (setting [6]) was 40 µM each time. Also, the 50% inhibitory concentration (IC50) in data set [3] was 65 µM. For the same compound, the Caco-2 TEER IC15 in data set [4] is greater than 100 µM.
As for `CC(=O)O[C@@]12CO[C@@H]1C[C@H](O)[C@@]1(C)C(=O)[C@H](O)C3=C(C)[C@@H](OC(=O)[C@H](O)[C@@H](NC(=O)OC(C)(C)C)c4ccccc4)C[C@@](O)([C@@H](OC(=O)c4ccccc4)[C@H]21)C3(C)C` [Docetaxel], the IC15 in data set [1] (setting [5]) and in data set [1] (setting [6]) was 40 µM each time. The half-inhibitory concentration (IC50) in data set [3] turned out to be 65 µM. The compound also gave a Caco-2 TEER IC15 in data set [4] greater than 100 µM.
`CN(CCOc1ccc(NS(C)(=O)=O)cc1)CCc1ccc(NS(C)(=O)=O)cc1` [Dofetilide]: the IC15 in data set [1] (setting [5]) and in data set [1] (setting [6]) was greater than 100 µM each time. In data set [3], the concentration for half-maximal inhibition (IC50) was greater than 100 µM. This compound returned a Caco-2 TEER IC15 in data set [4] greater than 100 µM.
As for `CC(C)(C)NC(=O)[C@H]1CC[C@H]2[C@@H]3CC[C@H]4NC(=O)C=C[C@]4(C)[C@H]3CC[C@]12C` [Finasteride], the IC15 in data set [1] (setting [5]) was 80 µM; in data set [1] (setting [6]) it was greater than 100 µM. In data set [3], the half-inhibitory concentration (IC50) was greater than 100 µM. Moreover, the Caco-2 TEER IC15 in data set [4] was greater than 100 µM.
With `O=C(NCC1CCCCN1)c1cc(OCC(F)(F)F)ccc1OCC(F)(F)F` (stereo not drawn) [Flecainide], the IC15 was 80 µM in data set [1] (setting [5]) and greater than 100 µM in data set [1] (setting [6]). Further, in data set [3], the IC50 was greater than 100 µM. The same compound had a Caco-2 TEER IC15 in data set [4] greater than 100 µM.
Consider `CO[C@H]1O[C@H](COS(=O)(=O)O)[C@@H](O[C@@H]2O[C@@H](C(=O)O)[C@@H](O[C@H]3O[C@H](COS(=O)(=O)O)[C@@H](O[C@@H]4O[C@H](C(=O)O)[C@@H](O[C@H]5O[C@H](COS(=O)(=O)O)[C@@H](O)[C@H](O)[C@H]5NS(=O)(=O)O)[C@H](O)[C@H]4O)[C@H](OS(=O)(=O)O)[C@H]3NS(=O)(=O)O)[C@H](O)[C@H]2OS(=O)(=O)O)[C@H](O)[C@H]1NS(=O)(=O)O` [Fondaparinux], for which the IC15 in data set [1] (setting [5]) and in data set [1] (setting [6]) was greater than 100 µM throughout. Also, the IC50 in data set [3] is greater than 100 µM. Moreover, the Caco-2 TEER IC15 in data set [4] is greater than 100 µM.
Regarding `O=C(CCCN1CCC(O)(c2ccc(Cl)cc2)CC1)c1ccc(F)cc1` [Haloperidol], the IC15 is 22 µM in data set [1] (setting [5]) and 8 µM in data set [1] (setting [6]). In addition, in data set [4], the Caco-2 TEER IC15 was determined as 30 µM.
Regarding `CC(=O)[C@]1(O)Cc2c(O)c3c(c(O)c2[C@@H](O[C@H]2C[C@H](N)[C@H](O)[C@H](C)O2)C1)C(=O)c1ccccc1C3=O` [Idarubicin], the IC15 in data set [1] (setting [5]) worked out at 4.3 µM; in data set [1] (setting [6]) it was 2.5 µM. The IC50 in data set [3] stood at 10 µM. The Caco-2 TEER IC15 in data set [4] was 8 µM.
Consider `Cc1ccc(NC(=O)c2ccc(CN3CCN(C)CC3)cc2)cc1Nc1nccc(-c2cccnc2)n1` [Imatinib], for which the IC15 in data set [1] (setting [5]) was found to be 7 µM; in data set [1] (setting [6]), 8 µM.
Turning to `CC(C)NCC(O)c1ccc(O)c(O)c1` (stereo not drawn) [Isoprenaline], the IC15 in data set [1] (setting [5]) and in data set [1] (setting [6]) was greater than 100 µM throughout. The IC50 in data set [3] was greater than 100 µM. Further, the Caco-2 TEER IC15 in data set [4] is greater than 100 µM.
In the case of `CNCCCC12CCC(c3ccccc31)c1ccccc12` [Maprotiline], the IC15 was found to be 6 µM in data set [1] (setting [5]) and 9 µM in data set [1] (setting [6]).
In the case of `COc1c2occc2cc2ccc(=O)oc12` [Methoxsalen], the IC15 in data set [1] (setting [5]) and in data set [1] (setting [6]) was 150 µM each time. For the same compound, the IC50 in data set [3] was 150 µM.
For `CC(C)(C)NCC(O)COc1cccc2c1CC(O)C(O)C2` (stereo not drawn) [Nadolol], the IC15 in data set [1] (setting [5]) and in data set [1] (setting [6]) was greater than 100 µM in each case. In addition, the 50% inhibitory concentration (IC50) in data set [3] is greater than 100 µM. In addition, the Caco-2 TEER IC15 in data set [4] is greater than 100 µM.
On to `CCCCC[C@H](O)/C=C/[C@@H]1[C@H]2C/C(=C/CCCC(=O)O)O[C@H]2C[C@H]1O` [Prostacyclin], for which the IC15 in data set [1] (setting [5]) and in data set [1] (setting [6]) was greater than 100 µM in each case. The IC50 in data set [3] is greater than 100 µM. The compound further displayed a Caco-2 TEER IC15 in data set [4] greater than 100 µM.
For `C=C[C@H]1C[N@@]2CC[C@H]1C[C@@H]2[C@@H](O)c1ccnc2ccc(OC)cc12` [Quinidine], the IC15 in data set [1] (setting [5]) and in data set [1] (setting [6]) was 30 µM each time. For the same compound, in data set [3], the half-inhibitory concentration (IC50) is greater than 100 µM.
Consider `CNC(=O)c1cc(Oc2ccc(NC(=O)Nc3ccc(Cl)c(C(F)(F)F)c3)cc2)ccn1` [Sorafenib], for which the IC15 in data set [1] (setting [5]) and in data set [1] (setting [6]) was 7.9 µM throughout. Also, in data set [3], the IC50 worked out at 65 µM. The compound also came in with a Caco-2 TEER IC15 in data set [4] of 15 µM.
On to `C=CC[C@@H]1/C=C(\C)C[C@H](C)C[C@H](OC)[C@H]2O[C@@](O)(C(=O)C(=O)N3CCCC[C@H]3C(=O)O[C@H](/C(C)=C/[C@@H]3CC[C@@H](O)[C@H](OC)C3)[C@H](C)[C@@H](O)CC1=O)[C@H](C)C[C@@H]2OC` [Tacrolimus], for which the IC15 in data set [1] (setting [5]) came out at 30 µM; in data set [1] (setting [6]), 40 µM. In data set [3], the 50% inhibitory concentration (IC50) stood at 55 µM. The compound further had a Caco-2 TEER IC15 in data set [4] of 30 µM.
Take `C[C@]12C=CC(=O)C=C1CC[C@H]1[C@@H]3C[C@@H](O)[C@](O)(C(=O)CO)[C@@]3(C)C[C@H](O)[C@@]12F` [Triamcinolone]: the IC15 in data set [1] (setting [5]) and in data set [1] (setting [6]) was greater than 100 µM each time. Also, the concentration for half-maximal inhibition (IC50) in data set [3] is greater than 100 µM. Besides, the Caco-2 TEER IC15 in data set [4] was greater than 100 µM.
In the case of `COc1ccc(CCN(C)CCCC(C#N)(c2ccc(OC)c(OC)c2)C(C)C)cc1OC` (stereo not drawn) [Verapamil], the IC15 in data set [1] (setting [5]) amounted to 40 µM; in data set [1] (setting [6]), 45 µM.
